Test results as given in US5767298A, “Aminophospholipid compositions and uses thereof” (Indiana University Foundation, priority 1996, dated 1998).

Columns and labels:
[1] = pH-dependent cleavage of caged aminophospholipids (MLVs, 1 h, 37° C., phosphate analysis of TLC-separated lipids); type: physicochemical; conditions: for cleavage at any pH: pH 3-8, 1 h, 37° C.; for pH of half-maximal cleavage: 1 h at 37° C.; for cleavage at pH 3: after extended incubation at pH 3; for significant cleavage at physiologically desirable pH: pH 5.5-8, 37° C.
Procedure: Derivatized aminophospholipids (C-DOPS (open circles), C-DOPE (filled circles), M-DOPE (open squares), D-DOPE (filled squares), T-DOPE (open triangles), and P-DOPE (filled triangles), 0.5 mM each) were suspended in citrate (pH 3, 4.5, and 6) or Hepes (pH 7 and 8) buffer and incubated for 1 h at 37° C.
pH-Dependent cleavage measurements. A chloroform solution of the "caged" aminophospholipid (0.1 μmol) being tested was dried under nitrogen and the lipid was resuspended in buffers (200 μL) of varying pH; pH 3 (50 mM citrate), pH 4.5 (50 mM citrate), pH 6 (50 mM citrate), pH 7 (50 mM Hepes), and pH 8 (50 mM Hepes), adjusted to physiological ionic strength (290-310 mOsM) with NaCl. Solutions were vortexed briefly to make multilamellar vesicles (MLVs) and placed in a shaking water bath for 1 h at 37° C. The reaction was quenched after 1 h with a Hepes buffer (0.5M, pH 8.0). The lipid was extracted and the aqueous phase washed twice with chloroform. The derivative was separated from DOPE or DOPS by normal phase silica TLC eluted with CHCl3:CH3OH:NH4OH:H2O (65:25:2.5:2.5). The fraction cleaved was determined by phosphate analysis of the corresponding iodine stained spots. A background measurement, not incubated at 37° C. for 1 h, but subjected to the same extraction and TLC procedures, was performed to correct for hydrolysis that occurred during workup. All measurements were completed in triplicate.
The pH dependence of cleavage of the DOPS and DOPE derivatives was determined by incubating lipid dispersions (MLVs) in buffers of varying pH for 1 h at 37° C. Hydrolysis was measured by phosphate analysis of TLC-separated products.

[2] = for time constant tau1 (initial fast component) / time constant tau2 (slow component): biexponential fit; for half-time for cleavage: citrate buffer, pH 5.5
Procedure: The extent of cleavage was determined by phosphate analysis of thin layer chromatographic separations of extracted lipids. The solid lines are non-linear least squares fits of the data to a double exponential equation (f(x)=α1*exp(-x/.tau.1)+α2*exp(-x/.tau.2)).
C-DOPE (0.5 mM, column 1) and C-DOPS (0.5 mM, columns 2-5) were suspended in citrate buffer, pH 5.5 (columns 1 and 2) containing Triton X-100 (0.1%, column 3), NaCl (1M, column 4) or egg PC (2.5 mM, column 5) and incubated for 1 h at 37° C. The extent of cleavage was quantitated by phosphate determination of thin layer chromatographic separations of extracted lipids. Kinetic parameters were determined by non-linear least squares fits of the data to a double exponential equation (see FIG. 2): A. Exponential coefficients α1 (open bars) and α2 (filled bars) B. Time constants .tau.1 (open bars) and .tau.2 (filled bars).
Chloroform solutions of C-DOPS or C-DOPE (0.1 μmol) were dried under nitrogen and resuspended in 200 μL of citrate buffer (50 mM, pH 5.5). MLVs were prepared as described above and placed in a shaking water bath at 37° C. At prescribed time points, the reaction was quenched with 50 μL of Hepes buffer (1M, pH 8.5), the lipid was extracted, and the amount of cleavage was determined by phosphate analysis of TLC-separated lipids.
In one set of experiments, the ionic strength of the citrate incubation buffer (pH 5.5) was raised by including 1M NaCl and cleavage was measured as described above. In a second set of experiments, C-DOPS cleavage was measured in the presence of Triton X-100 (0.1%). In a third set of experiments, a five fold excess of DOPC was add to the lipid suspensions to dilute the surface charge. In a fourth set of experiments, ethanol (0.05-0.5%), DTT (5 mM), aniline (1.5 mM), p-nitroaniline (1.5 mM), and DOPE (2.5 mM) were added in separate experiments to the incubation buffers as scavengers of the anhydride. The lipid products were extracted and isolated by thin-layer chromatography as described previously. A single time point at 2.5 or 3 h was analyzed. All measurements were completed in triplicate and data were fit to a biexponential equation (f(x)=α1*exp(-x/.tau.1)+α2*exp(-x/.tau.2)) using the program MacCurveFit (Kevin Raner, Mt. Waverley, Australia).

[3] = pH 5.5
Procedure: In a fourth set of experiments, ethanol (0.05-0.5%), DTT (5 mM), aniline (1.5 mM), p-nitroaniline (1.5 mM), and DOPE (2.5 mM) were added in separate experiments to the incubation buffers as scavengers of the anhydride. The lipid products were extracted and isolated by thin-layer chromatography as described previously. A single time point at 2.5 or 3 h was analyzed. All measurements were completed in triplicate and data were fit to a biexponential equation (f(x)=α1*exp(-x/.tau.1)+α2*exp(-x/.tau.2)) using the program MacCurveFit (Kevin Raner, Mt. Waverley, Australia).
This hypothesis was tested by using nucleophilic scavengers to trap the released anhydride. Both water soluble (dithiothreitol, ethanol) and lipophilic (aniline, p-nitroaniline, and DOPE) scavengers were added to C-DOPS solutions and cleavage was measured at a timepoint when the slow rate of cleavage predominated (Table II).

human erythrocytes [4] = experiment: Erythrocyte shape change (morphological index): incorporation, uncaging and transport of lipid; type: cell-based
Procedure: (§1) A. Timecourse of erythrocyte shape change (morphological index) induced in washed human erythrocytes by C-DOPS liposomes (200 μM) incubated in HBS. At 45 min (arrow), one set of cells was centrifuged, resuspended in citrate buffer (100 mM, pH 5.5) and re-incubated at 37° C. (open circles). Aliquots were fixed with glutaraldehyde and analyzed by light microscopy. B. Low pH-induced cleavage of C-DOP^3 HS in human erythrocytes. Washed human red cells were treated with C-DOP^3 HS (55 nCi) for 45 min at 37° C. in HBS. After centrifugation, the cells were resuspended in citrate buffer (pH 5.5) and reincubated at 37° C. At the indicated timepoints, lipids were extracted from aliquots of cells, C-DOP^3 HS and DOP^3 HS were separated by thin layer chromatography, and radiolabeled lipids were quantitated by scintillation counting.
Washed human erythrocytes were incubated with sonicated suspensions of DLPS (200 μM, open circles, filled circles) or DLPC (200 μM, open squares) in citrate buffer pH 5.5 (open symbols) or in HBS (filled symbols) at 37° C. Aliquots were fixed with glutaraldehyde and analyzed by light microscopy.
(§2) Timecourse of erythrocyte shape change (MI) induced by suspensions of C-DLPS (200 μM, open circles, open triangles) and DLPC (200 μM, open squares) in HBS. After 15 min (arrow), one sample of cells (open circles) was centrifuged, resuspended in citrate buffer (100 mM, pH 5.5) and re-incubated at 37° C. At 15 or 75 min, aliquots of each sample were removed and treated with DOPC vesicles (20 mM, 5% HCT) for 15 min at 37° C. (closed symbols). At the indicated times aliquots were fixed with glutaraldehyde and analyzed by light microscopy.
Cells. Human erythrocytes were obtained from healthy adult volunteers by venipuncture and collected into EDTA (3.3 mM final concentration). Erythrocytes were pelleted by centrifugation (5 min, 3000 g), washed three times in Hepes buffered saline (HBS, 118 mM NaCl, 50 mM Hepes, 5 mM KCl, 1 mM MgSO4, 5 mM glucose, pH 8.25), and stored on ice at 50% hematocrit (HCT).
Phosphatidylserine transport assay. Previously washed erythrocytes were pelleted by centrifugation (5 min, 3000 g) and incubated at 50% HCT with sonicated DLPS, DLPC, C-DLPS, or C-DOPS vesicles (200 μM) in HBS according to the method of Daleke and Huestis (1985). At prescribed time points, the cells were fixed by adding 5 μL aliquots to 50 μL of glutaraldehyde (0.5%). Aliquots of fixed cells were examined by light microscopy for changes in cell morphology. Echinocytes were assigned scores of +1 to +5 based on the degree of […], discocytes were scored 0, and stomatocytes were given scores of -1 to -4 based on their degree of […] (Daleke & Huestis, 1989). Echinocytic shapes are indicative of cells with excess lipid in the outer monolayer, while stomatocytic shapes are indicative of cells with excess inner monolayer lipid (Sheetz & Singer, 1974). Thus, cell morphology can be used to measure the movement of exogenously added lipids from the outer to the inner monolayer. The average score of a field of 100 cells is defined as the morphological index (MI).
Hydrolysis of C-DOPS in human erythrocytes. Washed red blood cells were incubated with sonicated C-DOPS vesicles (200 μM) in HBS at 50% HCT for 45 min at 37° C. After 45 min (C-DOPS), the cells were centrifuged (16,000 g, 5 min) and the supernatant was removed. The cells were washed once with a citrate buffer (50 mM, 300 mOsM, pH 5.25) and then incubated at 20% HCT for varying lengths of time in citrate buffer. […] The final pH of the red cell suspensions in HBS was 7.58±0.02 and those suspensions in citrate buffer was 5.72±0.03 pH units. The values were corrected for temperature (37° C.). At the specified time points, an aliquot of cells was fixed and examined by light microscopy.

human erythrocytes [5] = experiment: Back extraction of dilauroyl phospholipids from human erythrocytes with DOPC vesicles; type: cell-based
Procedure: as §2
Back extraction of dilauroyl phospholipids from human erythrocytes. Washed red blood cells were incubated with DLPS, DLPC, or C-DLPS (200 μM) in HBS at 50% HCT for 90 min at 37° C. After 15 min, an aliquot of the cells was removed and the short chain phospholipids in the outer monolayer were back extracted with sonicated DOPC vesicles (20 mM) in HBS at 5% HCT for 15 min at 37° C. A separate aliquot of C-DLPS-treated cells was removed at 15 min, centrifuged, resuspended in citrate buffer (pH 5.5), and reincubated at 37° C. After 60 min, an aliquot from the cells incubated at low pH was removed and the short chain phospholipids remaining in the outer monolayer were back extracted with DOPC. Two additional control experiments were performed: 1] DLPC (200 μM) was incorporated into cells as described above for 15 min and then back extracted with DOPC vesicles, and 2] cells without exogenously added lipid were incubated with DOPC vesicles under the conditions of the back extraction assay. In each of the forgoing experiments aliquots were removed at the prescribed time points and the morphological index was determined by light microscopy.

[6] = system: aminophospholipid transporter, or "flippase"; conditions: cited from earlier work; for inhibition of flippase: Seigneuret & Devaux, 1984, Daleke & Huestis, 1985, Connor & Schroit, 1987, Bitbol et al.
human erythrocytes [7] = experiment: Cleavage of C-DOP^3 HS in intact human erythrocytes (TLC, scintillation counting); type: cell-based; conditions: citrate buffer pH 5.5, 37° C.
Procedure: as §1
Hydrolysis of C-DOPS in human erythrocytes. […]
Uncaging of the C-DOPS derivative was measured in human red blood cells in order to test the feasibility of using the compound as a probe of aminophospholipid transport in biological membranes. […] Cleavage of C-DOP^3 HS was measured directly in intact erythrocytes. […] Following exchange with citrate buffer (pH 5.5), the cells were incubated at 37° C. and hydrolysis was measured by analysis of extracted lipids separated by thin layer chromatography.

[8] = 200 μM, citrate buffer (pH 5.5), 37° C.
[9] = after incorporation in HBS (15 min)

CCCCCCCC/C=C\CCCCCCCC(=O)OC[C@H](COP(=O)(O)OCCNC(=O)/C(C)=C(/C)C(=O)O)OC(=O)CCCCCCC/C=C\CCCCCCCC [D-DOPE, N-dimethylmaleyl-dioleoylphosphatidylethanolamine]
cleavage at any pH [1]: not cleaved to any appreciable extent

CCCCCCCC/C=C\CCCCCCCC(=O)OC[C@H](COP(=O)(O)OC[C@H](NC(=O)/C(C)=C\C(=O)O)C(=O)O)OC(=O)CCCCCCC/C=C\CCCCCCCC [C-DOPS, N-citraconyl-dioleoylphosphatidylserine]
initial cleavage rate relative to C-DOPE ([2]; citrate buffer pH 5.5, 37° C.): 6 fold
time constant tau1 (initial fast component) ([2]; citrate buffer pH 5.5, 37° C.): 0.15 h
time constant tau2 (slow component) ([2]; citrate buffer pH 5.5, 37° C.): 4.8 h
half-time for cleavage [2]: 85 min
% cleavage - scavenger ([3]; citrate buffer, 2.5 h): 55.2%
effect of scavengers on slower second rate ([3]; dithiothreitol, ethanol, aniline, p-nitroaniline, DOPE): None of these scavengers attenuated the slower second rate
pH of half-maximal cleavage [1]: 6.5 pH
time cells remain echinocytic (human erythrocytes [4]; HBS, 37° C., 200 μM): more than 1.5 h
cell shape after exchange of buffer to low pH (human erythrocytes [4]; Hepes buffer exchanged for citrate buffer (pH 5.5)): reverted to a more discoid shape

CCCCCCCCCCCC(=O)OCC(COP(=O)(O)OCC(N)C(=O)O)OC(=O)CCCCCCCCCCC (stereo not drawn) [DLPS, dilauroylphosphatidylserine]
erythrocyte shape change (human erythrocytes [4]; 200 μM, HBS, 37° C.): became echinocytic initially but rapidly reverted to stomatocytes
erythrocyte shape change (human erythrocytes [4]; [8]): became echinocytic initially but rapidly reverted to stomatocytes

CCCCCCCCCCCC(=O)OC[C@H](COP(=O)(O)OC[C@H](NC(=O)C(C)=CC(=O)O)C(=O)O)OC(=O)CCCCCCCCCCC [C-DLPS, N-citraconyl-dilauroylphosphatidylserine]
cell shape after back extraction with DOPC vesicles (human erythrocytes [5]; 15 min in HBS, then low pH for additional 60 min): reverted to stomatocytes
transbilayer location of lipid (human erythrocytes [5]; HBS): remains in the outer monolayer
cell shape after back extraction with DOPC vesicles (human erythrocytes [5]; [9]): reverted to discocytes
transbilayer location of lipid (portion) (human erythrocytes [5]; citrate buffer (low pH)): accumulates in the inner monolayer

CCCCCCCC/C=C\CCCCCCCC(=O)OC[C@H](COP(=O)(O)OCCNC(=O)/C(C)=C\C(=O)O)OC(=O)CCCCCCC/C=C\CCCCCCCC [C-DOPE, N-citraconyl-dioleoylphosphatidylethanolamine]
time constant tau1 (initial fast component) ([2]; citrate buffer pH 5.5, 37° C.): 0.9 h
time constant tau2 (slow component) ([2]; citrate buffer pH 5.5, 37° C.): 7 h
half-time for cleavage [2]: 110 min
pH of half-maximal cleavage [1]: 5.5 pH

CCCCCCCC/C=C\CCCCCCCC(=O)OCC(COP(=O)(O)OCCNC(=O)/C=C\C(=O)O)OC(=O)CCCCCCC/C=C\CCCCCCCC (stereo not drawn) [M-DOPE, N-maleyl-dioleoylphosphatidylethanolamine]
cleavage at pH 3 [1]: 25%
significant cleavage at physiologically desirable pH [1]: did not occur

phosphatidylserine [PS]
affinity of flippase relative to PE ([6]; PS versus PE, Zachowski et al., 1986): approximately ten-fold

CCCCCCCC/C=C\CCCCCCCC(=O)OCC(COP(=O)(O)OCCNC(=O)c1ccccc1C(=O)O)OC(=O)CCCCCCC/C=C\CCCCCCCC (stereo not drawn) [P-DOPE, N-phthalyl-dioleoylphosphatidylethanolamine]
cleavage at pH 3 [1]: 25%
significant cleavage at physiologically desirable pH [1]: did not occur

[Ca+2] [calcium]
inhibition of flippase [6]: inhibited

CCCCCCCCCCCC(=O)OCC(COP(=O)([O-])OCC[N+](C)(C)C)OC(=O)CCCCCCCCCCC (stereo not drawn) [DLPC, dilauroylphosphatidylcholine]
cell shape after back extraction with DOPC vesicles (human erythrocytes [5]; [9]): identical results
time echinocytic shape is retained (human erythrocytes [4]; [8]): more than 1.5 h
time to become echinocytic (human erythrocytes [4]; [8]): ≤ 2 min
shape changes at higher pH compared with pH 5.5 (human erythrocytes [4]; higher pH, data not shown): similar

N-3,4,5,6-tetrahydrophthalyl-phosphatidylethanolamine [T-DOPE]
cleavage at any pH [1]: not cleaved to any appreciable extent

[O]=[V]([O-])([O-])[O-] [vanadate]
inhibition of flippase [6]: inhibited

citraconyl-dioleoylphosphatidyl-[3-^3 H]serine [C-DOP^3 HS]
cleavage in erythrocytes compared with model membranes (human erythrocytes [7]): followed a similar timecourse and extent in erythrocytes as in model membranes
